Data published in paper PMC5607274, “An iterative compound screening contest method for identifying target protein inhibitors using the tyrosine-protein kinase Yes” (Scientific Reports, 2017).

Target: T1, human recombinant Yes [a.a. 2–543 (end)] (Homo sapiens, UniProt P07947)
T1 construct: human recombinant Yes [a.a; 2–543 (end)]; purchased BPS Bioscience 40488
Test: ADP-Glo kinase assay, inhibition rates of Yes phosphorylation activity (first and second screening)
Assay type: biochemical
Details: 10 μmol L−1 compound; for First screening IR (inhibition rate): mean of n = 4 wells
Method in brief: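 Hits from a first pass were rescreened after re-dissolution from fresh powder. The first pass reported the mean inhibition rate of quadruplicate wells per compound. Activity was that of recombinant human Yes [a.a. 2–543] kinase, read out with the ADP-Glo ADP-detection method.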

T1 sequence (P07947 2-543): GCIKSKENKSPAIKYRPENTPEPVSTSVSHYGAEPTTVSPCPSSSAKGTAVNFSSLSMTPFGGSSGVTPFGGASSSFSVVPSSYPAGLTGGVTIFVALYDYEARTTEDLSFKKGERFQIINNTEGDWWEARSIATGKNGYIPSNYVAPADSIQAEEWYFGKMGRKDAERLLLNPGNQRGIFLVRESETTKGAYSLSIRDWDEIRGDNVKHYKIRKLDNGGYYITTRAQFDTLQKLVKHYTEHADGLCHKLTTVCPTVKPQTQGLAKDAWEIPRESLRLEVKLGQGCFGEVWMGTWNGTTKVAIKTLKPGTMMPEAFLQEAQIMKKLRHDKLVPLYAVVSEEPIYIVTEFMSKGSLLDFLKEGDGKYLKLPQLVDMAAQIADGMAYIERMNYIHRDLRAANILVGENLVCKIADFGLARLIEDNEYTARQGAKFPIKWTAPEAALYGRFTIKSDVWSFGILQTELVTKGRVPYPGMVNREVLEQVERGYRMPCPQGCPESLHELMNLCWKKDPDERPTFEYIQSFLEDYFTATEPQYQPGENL

Structure (SMILES)	First screening IR (inhibition rate) [%]	Second screening IR (inhibition rate) (second screening, dissolved from fresh powder, n = 4) [%]
COc1cc(C(=O)OC(C)C(=O)NC(C)(C#N)C(C)C)ccc1Oc1ccc(Cl)cc1[N+](=O)[O-] (stereo not drawn) [Compound Z18025700]	1	
O=S(=O)(N/N=C/c1ccc(N(c2ccccc2)c2ccccc2)cc1)c1ccc(Br)cc1 [Compound Z49646816]	27	
Cc1cnc(NC(=O)CCCc2nc3ccccc3c(=O)[nH]2)s1 [Compound Z29324663]	9	
COc1cc(/C=N/Nc2ncnc3sc(-c4ccccc4)cc23)cc(OC)c1OC [Compound Z49894862]	34	22
O=C(NCc1nc2ccccc2[nH]1)c1ccc(OCc2ccccc2)cc1 [Compound Z26780414]	5	
COc1cc(/C=N/Nc2nc(-c3ccncc3)nc3ccccc23)ccc1O [Compound Z56841676]	18	
COc1ccc(S(=O)(=O)NCC(=O)OCC(=O)Nc2ccc(Cl)c(C(F)(F)F)c2)cc1 [Compound Z24395276]	8	
O=C(/C=C/c1cn(-c2ccccc2)nc1-c1cccnc1)c1ccc(Cl)c([N+](=O)[O-])c1 [Compound Z46041361]	19	
O=C(OCCOc1ccccc1Cl)c1cn2ccccc2n1 [Compound Z16593263]	0	
OCCNc1nc2ccccc2n1-c1ncnc2sc3c(c12)CCCC3 [Compound Z57981090]	7	
CCCCOc1ccc(C(=O)NCC(=O)NCC(c2cccs2)N2CCOCC2)cc1 (stereo not drawn) [Compound Z84671779]	6	
Cc1c(C(=O)NCCOc2ccccc2F)[nH]c2c1C(=O)CCC2 [Compound Z51995316]	36	
Cc1ccc(O)c(-c2cc(-c3ccccc3)c3ccccc3n2)c1.Cl [Compound Z48951082]	1	
CC(C)n1ncc2c(C(=O)N3CCN(CC(=O)N4CCOCC4)CC3)cc(-c3ccccc3)nc21 [Compound Z73457343]	7	
CCN(c1ccccc1)S(=O)(=O)c1ccc(C(=O)Nc2ccc(S(=O)(=O)N(C)C)cc2)cc1 [Compound Z29267150]	2	
Cc1noc(C)c1COc1ccccc1C(=O)NCCSc1ccc(Cl)cc1 [Compound Z89513568]	17	
CCOc1ccc(O)c(/C=C2\C(=O)Nc3ccc(Cl)cc32)c1 [Compound Z44304769]	23	
CCCOc1c(Br)cc(C(=O)Nc2cccc(S(=O)(=O)N(CC)CC)c2)cc1OC [Compound Z30220173]	20	
Cc1ccc(-c2csc3ncn(CC(=O)N4CCN(CC(=O)NC(C)(C)C)CC4)c(=O)c23)cc1C [Compound Z81619452]	-8	
N#Cc1ccccc1CSCCNC(=O)c1ccc2nc[nH]c2c1 [Compound Z88237436]	-1	
CCCCC(CC)CN1C(=O)/C(=C/c2c(NCCCn3ccnc3)nc3c(C)cccn3c2=O)SC1=S (stereo not drawn) [Compound Z56863942]	0	
O=S1(=O)C=C(Cl)C(Br)C1 (stereo not drawn) [Compound Z57056476]	1	
c1csc(-c2noc(CSc3nnc(C4CC4)n3C3CC3)n2)c1 [Compound Z90118492]	4	
COc1ccc(-c2cc3c4ccccc4oc4nc(=N)c(C#N)c([nH]2)c43)cc1 [Compound Z85934217]	5	
COc1ccc(/C=C2/CN(C)Cc3c2nc2ccccc2c3C(=O)O)cc1 [Compound Z46114702]	-7	
CCN(CC)S(=O)(=O)c1ccc(Cl)c(NC(=O)COC(=O)c2cc(-c3ccc4cc(OC)ccc4c3)nc3ccccc23)c1 [Compound Z18792611]	-19	
NC(=O)Nc1ccc(C(=O)NCCC(c2ccccc2)c2ccccc2)cc1 [Compound Z26815125]	-8	

Other lines, results leading:

First screening IR (inhibition rate) [%]	Second screening IR (inhibition rate) (second screening, dissolved from fresh powder, n = 4) [%]	Structure (SMILES)
36		Cc1ccccc1-c1nc(SCc2cn3cc(Cl)ccc3n2)n[nH]1 [Compound Z221422064]
-4		CCC(CC)N(C)S(=O)(=O)c1ccc(S(N)(=O)=O)cc1 [Compound Z369246436]
-10		CCCn1c(CSc2ncn(-c3ccccc3)n2)nc2cc(S(=O)(=O)N(C)C)ccc21 [Compound Z227429876]
6		CN(C)c1nc(N)nc(CSc2nnc(-c3ccccc3)n2C)n1 [Compound Z193722710]
-2		O=C(NCc1ccc(-n2cccn2)nc1)c1cc(-c2ccco2)[nH]n1 [Compound Z317736476]
16		CC(C)(Oc1ccc(Cl)cc1)C(=O)Nc1n[nH]c(-c2ccc(F)cc2)n1 [Compound Z108548764]
7		Cc1cc(Br)c(O)c(C(=O)NCCC(=O)N2CCOCC2)c1 [Compound Z596098802]
2		COCC(=O)N1CCCCCC1C1CCN(c2ncc(C(N)=O)cc2Cl)CC1 (stereo not drawn) [Compound Z1170427223]
61		O=C(Nc1ccc(S(=O)(=O)Nc2nccs2)cc1)c1cnn(Cc2ccccc2)c1 [Compound Z100622740]
2		CN(C1(C)CCS(=O)(=O)C1)S(=O)(=O)c1ccc(Cl)c(Cl)c1 (stereo not drawn) [Compound Z131022412]
-3		CN(C)C(=O)CN1CCN(CC(=O)Nc2cc(-c3ccc4c(c3)CCC4)nn2-c2ccccc2)CC1 [Compound Z106627256]
20		CCOc1ccc(N2C(C)=CC(=C(C#N)c3nc4ccccc4s3)C=C2C)cc1 [Compound Z223690154]
-1		COc1cccc(/C(O)=C2\C(=O)C(=O)N(CCCn3ccnc3)C2c2cccc([N+](=O)[O-])c2)c1 (stereo not drawn) [Compound Z316156320]
22		Cc1ccc(-n2c(SCC(=O)c3cc(C)n(CC4CCCO4)c3C)nnc2N2CCOCC2)cc1 (stereo not drawn) [Compound Z98369603]
-25		Cc1cccc(NC(=O)CN2CCN(C(=O)CN3C(=O)Cn4c(cc5ccccc54)C3=O)CC2)c1C [Compound Z826666316]
3		Cc1cc(C)n(C(C)C(=O)Nc2ccc(NC(=O)C(C)(C)C)cc2Cl)n1 (stereo not drawn) [Compound Z850607168]
8		CCN(C1CCS(=O)(=O)C1)S(C)(=O)=O (stereo not drawn) [Compound Z133704180]
11		Cc1cn2c3c(=O)n(CCN4CCCCC4)c(=O)n(C)c3nc2n1-c1ccc(Oc2ccccc2)cc1 [Compound Z247616328]
-2		O=C(Nc1cccc(COc2cccc(F)c2)c1)c1ccc(=O)[nH]n1 [Compound Z383786992]
6		CC(=O)N1CCN(c2nc(C(F)(F)F)nc3ccsc23)CC1 [Compound Z370715150]
13		CC1c2cc(Cl)cc(Cl)c2CCN1C(=O)c1cnc2n1CCCC2 (stereo not drawn) [Compound Z1494913871]

First screening IR (inhibition rate) [%]	Second screening IR (inhibition rate) (second screening, dissolved from fresh powder, n = 4) [%]	Structure (SMILES)
8		O=C(NCC1CCCCC1)c1cc(-c2ccccc2)nc2c1cnn2Cc1ccncc1 [Compound Z108748406]
6		Cc1nc(-c2ccsc2)sc1C(=O)Nc1ccc(Cl)cc1F [Compound Z115004236]
0		Cc1noc(C)c1COC(=O)c1c[nH]cc1-c1ccc(Cl)s1 [Compound Z796939908]
-10		Cc1cc(COC(=O)c2cc(-c3ccccc3)nc3c2cnn3Cc2ccccc2)no1 [Compound Z228519880]
-5		Cc1nc(-c2cc(C(=O)N3CCCC(n4ccnc4)C3)co2)cs1 (stereo not drawn) [Compound Z1102775620]
5		CC(=O)[C@@H]1C[C@H](CC(=O)NCCc2ccn(-c3ccc(F)cc3)n2)C1(C)C [Compound Z1675157483]
10		CCn1c(=O)c2c(nc3n(-c4ccc(N(C)C)cc4)c(C)cn23)n(C)c1=O [Compound Z278205390]
-5		CN(C)C(=O)Cn1cc(NC(=O)c2ccc3cc[nH]c3c2)cn1 [Compound Z1067269008]
-17		Cc1cc(Br)ccc1NC(=O)Cn1nc(C)c(S(=O)(=O)N2CCC(C)CC2)c1C [Compound Z107308838]
7		CCC1CCCCN1S(=O)(=O)c1cc(S(C)(=O)=O)ccc1Cl (stereo not drawn) [Compound Z355127288]
9		CCN(Cc1ccc(Cl)s1)C(=O)NCc1ccnc(N2CCN(C)CC2)c1 [Compound Z508129336]
2		COC(=O)c1cc(-c2ccc(OC)c(OC)c2)nc2c1c(C)nn2C1CCS(=O)(=O)C1 (stereo not drawn) [Compound Z91043666]
32		O=C1Nc2ccccc2/C1=C\c1cnn(-c2ccccc2)c1 [Compound Z95045593]
8		CC1(C)CN(c2nc(-c3ccncc3)nc3c2CCC3)CC[S+]1[O-] (stereo not drawn) [Compound Z1396757600]
-14		NC(=O)Nc1ccc(NC(=O)Cc2csc(Cc3ccccc3)n2)cc1 [Compound Z383135670]
8		Cc1cccc(C)c1OC1CCN(c2ncnc3c2cnn3C)CC1 [Compound Z646031500]
-5		COc1ccc(NC(=O)C(=O)c2c(C)nn(-c3ccccc3)c2C)cc1OCc1cn2ccccc2n1 [Compound Z605682156]
-1		CC1(C(=O)N2CCCc3cc(S(=O)(=O)N4CCCC4)ccc32)Cc2ccccc2C(=O)O1 (stereo not drawn) [Compound Z131206652]
-8		NS(=O)(=O)c1cccc(S(=O)(=O)N2CCCCC2)c1 [Compound Z237744790]
15		Cc1cccc(-n2c(=O)c3ccccc3n3c(SCC(=O)NC(C)CCCC(C)C)nnc23)c1C (stereo not drawn) [Compound Z113967060]
